These results are taken from ChEMBL document CHEMBL2062380, “Discovery of a novel pyrrole derivative 1-[5-(2-fluorophenyl)-1-(pyridin-3-ylsulfonyl)-1H-pyrrol-3-yl]-N-methylmethanamine fumarate (TAK-438) as a potassium-competitive acid blocker (P-CAB)” (J Med Chem, 2012).

Counter-ions that a name gives are not always drawn. The source made the active and inactive calls. The rule behind the calls is not given here.

The test system of data set [1] is Canis familiaris. Description: Inhibition histamine-induced gastric acid secretion in Heidenhain-pouch dog at 1 mg/kg, po administered 1 tp 48 hrs prior histamine challenge measured for 3 consecutive 30 mins time period after compound dosing. Particulars: Canis lupus familiaris, Stomach. Format: functional, organism-based. On the set-up: dose 1 mg/kg.
Data set [2] has as its system Rattus norvegicus. Description: Inhibition of histamine-induced gastric acid secretion in pylorus-ligated Sprague-Dawley rat at 8 mg/kg, po measured after 3 hrs post histamine challenge. Particulars: Stomach. Format: functional, organism-based. Details: dose 8 mg/kg.
The nature of data set [3]: Inhibition of swine H+/K+-ATPase after 30 mins by colorimetry. Details: species or system Sus scrofa.
Data set [4] can be described thus: Lipophilicity, log D of compound at pH 7.4. To be noted: buffer. Format: physicochemical.
Data set [5] deals with Rattus norvegicus. Put plainly: Inhibition of histamine-induced gastric acid secretion in pylorus-ligated Sprague Dawley rat at 1 mg/kg, iv administered 3 mins prior to histamine challenge measured after 3 hrs. It is filed as functional. Particulars: Stomach.
For data set [6], the system named is Canis familiaris. Put plainly: Inhibition histamine-induced gastric acid secretion in Heidenhain-pouch dog at 1 mg/kg, po administered 1 day post histamine challenge measured for 3 consecutive 30 mins time period after compound dosing. Details: dose 1 mg/kg. To be noted: Canis lupus familiaris, Stomach. Format: functional, organism-based.
Data set [7] has as its system Canis familiaris. Put plainly: Inhibition histamine-induced gastric acid secretion in Heidenhain-pouch dog at 1 mg/kg, po measured after 2 days. Format: functional, organism-based. Particulars: Canis lupus familiaris, Stomach. On the set-up: dose 1 mg/kg.
The subject of data set [8] is Rattus norvegicus. Put plainly: Complete inhibition of histamine-induced gastric acid secretion in pylorus-ligated Sprague Dawley rat at 4 mg/kg, po measured after 3 hrs post histamine challenge. It is filed as functional, organism-based. To be noted: Stomach. Details: dose 4 mg/kg.
Data set [9] concerns Rattus norvegicus. Description: Inhibition of histamine-induced gastric acid secretion in po dosed pylorus-ligated Sprague-Dawley rat measured after 3 hrs post histamine challenge. It is filed as functional, organism-based. To be noted: Stomach.

Take `Cc1c(OCC(F)(F)F)ccnc1C[S+]([O-])c1nc2ccccc2[nH]1` (stereo not drawn): the inhibition entry in [1] was “Active”. Further, the inhibition result in data set [2] is “inactive”.

As a reminder, the IC50 is the concentration that gives 50% inhibition. Low readings indicate higher potency, high ones lower potency. The term logD denotes lipophilicity at a set pH, counting ionised and neutral species. High values mean a more lipophilic compound, low ones a more hydrophilic compound. For orientation: inhibition in vivo means the percentage by which the read-out fell short of the control. In the case of `CNCc1cc(-c2ccccc2)n(S(=O)(=O)c2ccc(OC)nc2)c1`, the IC50 in data set [3] was found to be 13 nM. Moreover, the pH-dependent lipophilicity (logD) in [4] came to 1.7. In data set [5], this molecule displayed an inhibition in vivo at 1 mg/kg of 95%.

Take `CNCc1cc(-c2ccccc2)n(S(=O)(=O)c2ccc(OC)cc2)c1`: inhibition in data set [3] was half-maximal at 30 nM (IC50). This molecule also gave a logD in data set [4] of 1.5. Moreover, testing at 1 mg/kg in data set [5] gave an inhibition in vivo of 95%.

As to `CNCc1cc(-c2ccccc2)n(S(=O)(=O)c2ccc(C)nc2)c1`, it took 34 nM to reach half-maximal inhibition in [3] (IC50). The same molecule yielded a logD in data set [4] of 1. This molecule also registered an inhibition in vivo at 1 mg/kg in data set [5] of 83%.

For the molecule `CNCc1cc(-c2ccccc2CO)n(S(=O)(=O)c2cccnc2)c1`, in data set [3], inhibition was half-maximal at 2200 nM (IC50). This molecule also had a logD in data set [4] of -0.3.

In turn, `CNCc1cc(-c2ccccc2F)n(S(=O)(=O)c2cccnc2)c1` [VONOPRAZAN FUMARATE] yielded an IC50 in data set [3] of 19 nM. In addition, the inhibition result in [6], in data set [7] and in data set [8] was “Active” in each case. Moreover, in [4], the logD turned out to be 0.4. Besides, the inhibition in vivo at 1 mg/kg in data set [5] turned out to be 98%. In data set [9], the inhibition result is “Dose-dependent effect”.

`CNCc1cc(-c2ccccc2)n(S(=O)(=O)c2ccccn2)c1` returned an IC50 in data set [3] of 170 nM.

The molecule `CNCc1cc(-c2cccc(F)c2)n(S(=O)(=O)c2cccnc2)c1` yielded an IC50 in data set [3] of 20 nM. Further, the logD in data set [4] was found to be 1. Besides, the inhibition in vivo at 1 mg/kg in data set [5] came to 92%.

For the molecule `CNCc1cc(-c2ccccc2)n(S(=O)(=O)c2cccc(OC)c2)c1`, in data set [3], the IC50 is 11 nM.

In turn, `CNCc1cc(-c2ccccc2)n(S(=O)(=O)c2cccs2)c1` had an IC50 in data set [3] of 51 nM. The molecule also had a logD in data set [4] of 1.2. The molecule also came in with an inhibition in vivo at 1 mg/kg in data set [5] of 69%.

With `CNCc1cc(-c2ccccc2)n(S(=O)(=O)c2ccsc2)c1`, the IC50 in [3] was 16 nM. The molecule further displayed a logD in [4] of 1.1. Moreover, testing at 1 mg/kg in [5] gave an inhibition in vivo of 55%.

For `CNCc1cc(-c2ccccc2C#N)n(S(=O)(=O)c2cccnc2)c1`, the IC50 in data set [3] turned out to be 230 nM. This molecule also had a logD in [4] of -0.2. In addition, in data set [5], the inhibition in vivo at 1 mg/kg amounted to 68%.

`CNCc1cc(-c2ccccc2C)n(S(=O)(=O)c2cccnc2)c1` had a half-maximal inhibitory concentration (IC50) in [3] of 46 nM. In addition, the logD in [4] came out at 1. The molecule further returned an inhibition in vivo at 1 mg/kg in [5] of 95%.

Regarding `CNCc1cc(-c2ccccc2)n(S(=O)(=O)c2ccc(C#N)nc2)c1`, in [3], the midpoint of inhibition, the IC50, lay at 110 nM. Further, the logD in [4] was 1.4. The inhibition in vivo at 1 mg/kg in data set [5] was 17%.

`CNCc1cc(-c2ccccc2Cl)n(S(=O)(=O)c2cccnc2)c1`: the midpoint of inhibition in [3], the IC50, lay at 17 nM. Further, the log distribution coefficient (logD) in [4] came to 0.7. In [5], this molecule returned an inhibition in vivo at 1 mg/kg of 97%.

Consider `CNCc1cc(-c2ccccc2C(F)(F)F)n(S(=O)(=O)c2cccnc2)c1`, for which, in data set [3], the IC50 is 75 nM. This molecule also had a logD in data set [4] of 0.8. Moreover, the inhibition in vivo at 1 mg/kg in data set [5] stood at 92%.

In the case of `CNCc1cc(-c2ccc(F)cc2)n(S(=O)(=O)c2cccnc2)c1`, the concentration for half-maximal inhibition (IC50) in data set [3] was 46 nM. The molecule also returned a logD in [4] of 1. The molecule also registered an inhibition in vivo at 1 mg/kg in [5] of 85%.

In the case of `CNCc1cc(-c2ccccc2)n(S(=O)(=O)c2cccnc2)c1`, half-maximal inhibition in data set [3] (IC50) was put at 16 nM. The logD in data set [4] is 0.7. 1 mg/kg produced 85% inhibition in vivo in data set [5].

In data set [3], `CNCc1cc(-c2ccccc2)n(S(=O)(=O)c2cccc(S(C)(=O)=O)c2)c1` returned an IC50 of 78 nM.
